Assay results: patent publication US5075289A, “9-R-azacyclic erythromycin antibiotics” (priority 1988, dated 1991)
In brackets after ≈: the same amount, converted by molar mass. Read-outs that look alike come from different tables or passages of the source.

Assays:
Assay in all cases: In vitro antibacterial activity, agar dilution MIC
Type in all cases: cell-based
[1] = test system: Enterococcus faecium ATCC 8043
Method in brief: (§1)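 In agar dilution on Brain Heart Infusion agar, twelve successive compound dilutions were inoculated at 1:100 (1:10 for slow growers such as Streptococcus) by replicator and incubated 20–24 h at 35–37 °C. MIC is the lowest concentration giving no growth, slight haze or sparse colonies; erythromycin A was the class control.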

Escherichia coli DC-2 = conditions: DC2
Method in brief: as §1

Escherichia coli H560 = conditions: H560
Method in brief: as §1

Escherichia coli Juhl = test system: Escherichia coli Juhl
Method in brief: as §1

Escherichia coli SS = conditions: read-out: MIC
Method in brief: as §1

[2] = test system: Haemophilus influenzae 1177; conditions: H. influenzae 1177
Method in brief: as §1

[3] = test system: Haemophilus influenzae 1435; conditions: H. influenzae 1435
Method in brief: as §1

[4] = test system: Haemophilus influenzae 503B; conditions: H. influenzae 503B
Method in brief: as §1

[5] = test system: Haemophilus influenzae 504; conditions: H. influenzae 504
Method in brief: as §1

[6] = test system: Haemophilus influenzae 519A; conditions: H. influenzae 519A
Method in brief: as §1

[7] = test system: Haemophilus influenzae 566A; conditions: H. influenzae 566A
Method in brief: as §1

[8] = test system: Haemophilus influenzae 588A; conditions: H. influenzae 588A
Method in brief: as §1

[9] = test system: Haemophilus influenzae 632A; conditions: H. influenzae 632A
Method in brief: as §1

[10] = test system: Haemophilus influenzae 667A; conditions: H. influenzae 667A
Method in brief: as §1

[11] = test system: Haemophilus influenzae 747C; conditions: H. influenzae 747C
Method in brief: as §1

[12] = test system: Haemophilus influenzae 751; conditions: H. influenzae 751
Method in brief: as §1

[13] = test system: Haemophilus influenzae ATCC 10211; conditions: ATCC10211, H. influenzae ATCC 10211
Method in brief: as §1

[14] = test system: Haemophilus influenzae ATCC 19418; conditions: ATCC19418, H. influenzae ATCC 19418
Method in brief: as §1

[15] = test system: Haemophilus influenzae DILL AMP R; conditions: H. influenzae DILL AMP R
Method in brief: as §1

[16] = test system: Haemophilus influenzae SOL AMP R; conditions: H. influenzae SOL AMP R
Method in brief: as §1

[17] = test system: Haemophilus influenzae SPK AMP R; conditions: H. influenzae SPK AMP R
Method in brief: as §1

[18] = test system: Micrococcus luteus ATCC 4698
Method in brief: as §1

[19] = test system: Micrococcus luteus ATCC 9341; conditions: ATCC9341, M. luteus ATCC 9341, Brain Heart Infusion agar, 20-24 hours, read-out: MIC
Method in brief: as §1

Staphylococcus aureus 45 = test system: Staphylococcus aureus 45
Method in brief: as §1

[20] = test system: Staphylococcus aureus A5177; conditions: S. aureus A5177, Brain Heart Infusion agar, 20-24 hours, read-out: MIC
Method in brief: as §1

[21] = test system: Staphylococcus aureus ATCC 6538P; conditions: ATCC6538P
Method in brief: as §1

[22] = test system: Staphylococcus aureus CMX 503A; conditions: CMX503A, S. aureus CMX 503A, Brain Heart Infusion agar, 20-24 hours, read-out: MIC
Method in brief: as §1

[23] = test system: Staphylococcus aureus CMX 553; conditions: CMX553, S. aureus CMX 553, Brain Heart Infusion agar, 20-24 hours, read-out: MIC
Method in brief: as §1

[24] = test system: Staphylococcus aureus CMX 686B; conditions: CMX686B, S. aureus CMX 686B, Brain Heart Infusion agar, 20-24 hours, read-out: MIC
Method in brief: as §1

[25] = test system: Staphylococcus epidermidis 3519; conditions: S. epidermidis 3519, Brain Heart Infusion agar, 20-24 hours, read-out: MIC
Method in brief: as §1

[26] = test system: Streptococcus agalactiae CMX 508; conditions: CMX508, S. agalactiae CMX 508, Brain Heart Infusion agar, 20-24 hours, read-out: MIC
Method in brief: as §1

[27] = test system: Streptococcus bovis A5169
Method in brief: as §1

[28] = test system: Streptococcus pyogenes 2548 INDUC; conditions: S. pyogenes 2548 INDUC, Brain Heart Infusion agar, 20-24 hours, read-out: MIC
Method in brief: as §1

[29] = test system: Streptococcus pyogenes 930 CONST; conditions: 930CONST
Method in brief: as §1

[30] = test system: Streptococcus pyogenes EES61; conditions: S. pyogenes EES61, Brain Heart Infusion agar, 20-24 hours, read-out: MIC
Method in brief: as §1

Structure (SMILES) | MIC (Escherichia coli DC-2) | MIC (Escherichia coli H560) | MIC (Escherichia coli Juhl) | MIC [2] | MIC [3] | MIC [4] | MIC [5] | MIC [6] | MIC [7] | MIC [8] | MIC [9] | MIC [10] | MIC [11] | MIC [12] | MIC [13] | MIC [14] | MIC [15] | MIC [16] | MIC [17] | MIC [19] | further results
CC[C@H]1OC(=O)[C@H](C)[C@@H](O[C@H]2C[C@@](C)(OC)[C@@H](O)[C@H](C)O2)[C@H](C)[C@@H](O[C@@H]2O[C@H](C)C[C@H](N(C)C)[C@H]2O)[C@](C)(O)C[C@@H](C)[C@@H](N2CCCCC2)[C@H](C)[C@@H](O)[C@]1(C)O [Example 5] | 50 µg/mL (≈ 62.3 µM) | 25 µg/mL (≈ 31.1 µM) | 50 µg/mL (≈ 62.3 µM) | 0.25 µg/mL (≈ 0.311 µM) | 0.5 µg/mL (≈ 0.623 µM) | 0.5 µg/mL (≈ 0.623 µM) | 1 µg/mL (≈ 1.25 µM) | 0.5 µg/mL (≈ 0.623 µM) | 2 µg/mL (≈ 2.49 µM) | 1 µg/mL (≈ 1.25 µM) | 1 µg/mL (≈ 1.25 µM) | 1 µg/mL (≈ 1.25 µM) | 1 µg/mL (≈ 1.25 µM) | 4 µg/mL (≈ 4.98 µM) | 1 µg/mL (≈ 1.25 µM) | 2 µg/mL (≈ 2.49 µM) | 1 µg/mL (≈ 1.25 µM) | 1 µg/mL (≈ 1.25 µM) | 1 µg/mL (≈ 1.25 µM) | 0.1 µg/mL (≈ 0.125 µM) | MIC ([1]; ATCC8043, E. faecium ATCC 8043, Brain Heart Infusion agar, 20-24 hours, read-out: MIC): 0.1 µg/mL (≈ 0.125 µM); MIC (Escherichia coli SS; E. coli SS, Brain Heart Infusion agar, 20-24 hours): 0.39 µg/mL (≈ 0.486 µM); MIC ([18]; ATCC4698, M. luteus ATCC 4698, Brain Heart Infusion agar, 20-24 hours, read-out: MIC): 0.2 µg/mL (≈ 0.249 µM); MIC (Staphylococcus aureus 45; S. aureus 45, Brain Heart Infusion agar, 20-24 hours, read-out: MIC): 0.78 µg/mL (≈ 0.971 µM); MIC [20]: 6.2 µg/mL (≈ 7.72 µM); MIC ([21]; S. aureus ATCC 6538P, Brain Heart Infusion agar, 35-37° C., 20-24 hours, read-out: MIC): 0.39 µg/mL (≈ 0.486 µM); MIC [22]: 0.39 µg/mL (≈ 0.486 µM); MIC [23]: 0.39 µg/mL (≈ 0.486 µM); MIC [24]: 0.39 µg/mL (≈ 0.486 µM); MIC [25]: 0.39 µg/mL (≈ 0.486 µM); MIC [26]: 0.05 µg/mL (≈ 0.0623 µM); MIC ([27]; S. bovis A5169, Brain Heart Infusion agar, 20-24 hours, read-out: MIC): 0.1 µg/mL (≈ 0.125 µM); MIC [28]: 6.2 µg/mL (≈ 7.72 µM); MIC [29]: > 100 µg/mL; MIC [30]: 0.05 µg/mL (≈ 0.0623 µM)
CC[C@H]1OC(=O)[C@H](C)[C@@H](O[C@H]2C[C@@](C)(OC)[C@@H](O)[C@H](C)O2)[C@H](C)[C@@H](O[C@@H]2O[C@H](C)C[C@H](N(C)C)[C@H]2O)[C@](C)(O)C[C@@H](C)[C@@H](N2CCOCC2)[C@H](C)[C@@H](O)[C@]1(C)O [Example 19] | 50 µg/mL (≈ 62.1 µM) | 6.2 µg/mL (≈ 7.7 µM) | 50 µg/mL (≈ 62.1 µM) | 0.25 µg/mL (≈ 0.311 µM) | 1 µg/mL (≈ 1.24 µM) | 1 µg/mL (≈ 1.24 µM) | 4 µg/mL (≈ 4.97 µM) | 2 µg/mL (≈ 2.48 µM) | 4 µg/mL (≈ 4.97 µM) | 2 µg/mL (≈ 2.48 µM) | 4 µg/mL (≈ 4.97 µM) | 4 µg/mL (≈ 4.97 µM) | 2 µg/mL (≈ 2.48 µM) | 8 µg/mL (≈ 9.94 µM) | 2 µg/mL (≈ 2.48 µM) | 4 µg/mL (≈ 4.97 µM) | 2 µg/mL (≈ 2.48 µM) | 2 µg/mL (≈ 2.48 µM) | 4 µg/mL (≈ 4.97 µM) | 0.05 µg/mL (≈ 0.0621 µM) | MIC ([1]; ATCC8043): 0.1 µg/mL (≈ 0.124 µM); MIC (Escherichia coli SS): 0.2 µg/mL (≈ 0.248 µM); MIC ([18]; ATCC4698, read-out: MIC): 0.2 µg/mL (≈ 0.248 µM); MIC (Staphylococcus aureus 45; 45): 0.39 µg/mL (≈ 0.484 µM); MIC [20]: 6.2 µg/mL (≈ 7.7 µM); MIC [21]: 0.39 µg/mL (≈ 0.484 µM); MIC [22]: 0.39 µg/mL (≈ 0.484 µM); MIC [23]: 0.39 µg/mL (≈ 0.484 µM); MIC [24]: 0.39 µg/mL (≈ 0.484 µM); MIC [25]: 0.39 µg/mL (≈ 0.484 µM); MIC [26]: 0.05 µg/mL (≈ 0.0621 µM); MIC [27]: 0.1 µg/mL (≈ 0.124 µM); MIC [28]: 6.2 µg/mL (≈ 7.7 µM); MIC [29]: > 100 µg/mL; MIC [30]: 0.05 µg/mL (≈ 0.0621 µM)
